Numbers after ± are expanded uncertainties.
What was measured:
[1] = Crystal; DTA
[2] = Molar enthalpy of transition or fusion; conditions: Crystal; DSC

Normal melting temperature [1]: 316.37 ± 24 °C
Molar enthalpy of transition or fusion [2]: 10.9 ± 0.478 kcal/mol
Compound: COc1cc(O)c2c(c1)oc(=O)c1c3cc(O)c(O)cc3oc21 [wedelolactone]

— the NIST ThermoML archive (doi:10.1016/j.fluid.2014.10.031)
